Earlier results in patent US20250295592A1, “Method for Controlled Release Oral Drug Delivery” (priority 2024, published 2025).
Like-named read-outs stand apart in the source and are kept apart here.

[1] = human stomach, acidic gastric contents

For `CCCC(C)C1(CC)C(=O)NC(=S)NC1=O` (stereo not shown) [thiopental], the “absorption from the stomach” value [1] is given as “readily absorbed”.
In the case of `CC(=O)Oc1ccccc1C(=O)O` [aspirin], the “absorption from the stomach” value [1] is given as “readily absorbed”.
In the case of `Cc1cc(=O)n(-c2ccccc2)n1C` [antipyrine], the “absorption from the stomach” value (in vivo) is listed as “readily absorbed”.
For `C=CCC1(C(C)CCC)C(=O)NC(=O)NC1=O` (stereo not shown) [secobarbital], the “absorption from the stomach” value [1] is listed as “readily absorbed”.
